# According to patent US20250073249A1, “STEROID COMPOUND, AND PREPARATION METHOD THEREFOR AND USE THEREOF” (SHANGHAI INSTITUTE OF MATERIA MEDICA, CHINESE ACADEMY OF …, priority 2022, published 2025):
# What was measured:
# [1] = In vivo pharmacokinetics in rats after oral gavage; conditions: male SD rats, PO 10 mg/kg
# Protocol: Male SD rats were randomly divided into 6 groups, 3 rats per group. The rats were fasted but not water-deprived for 12-14 h one day before dosing. The test samples were then dissolved in a solvent of 5% DMSO+30% PEG400+65% (0.5% MC) and administered by gavage at 10 mg/kg. Food was provided 4 h after dosing. Blood samples (0.10 mL) were collected via the orbital sinus at 0, 15, 30 min, 1, 2, 4, 6, 8, and 24 h, with EDTA-K2 as anticoagulant. Blood samples were placed on ice after collection and centrifuged to separate plasma within 30 minutes (centrifugation conditions: 5000 rpm, 10 minutes, 4° C.). 50.0 μL of plasma sample (taken from −80° C. freezer, thawed naturally at room temperature and vortexed for 30 seconds) was added to a 1.5 mL centrifuge tube, followed by addition of 500 μL internal standard solution (methanol (TEDIA, HPLC grade), acetonitrile (TEDIA, HPLC grade), formic acid (FA, ACROS ORGANICS, HPLC grade), water was laboratory-made ultrapure water (100.0 ng·mL−1)). The mixture was vortexed for 60 seconds and centrifuged for 3 minutes (centrifugal force 12000 rpm). 100 μL of the supernatant was transferred to a 96-well injection plate containing an equal volume of water, mixed by shaking, and analyzed by LC-MS/MS with an injection volume of 10 μL. The data acquisition and control system software was Analyst 1.5.1 software (Applied Biosystem). The chromatographic sample peaks were integrated automatically. The ratio of sample peak area to internal standard peak area was used as an indicator for regression with sample concentration.
# The pharmacokinetic parameters of representative compounds of the present invention were tested in male SD rats after oral gavage administration at 10 mg/kg according to the above conventional method to examine the pharmacokinetic characteristics of the compounds of the present invention in rats.
# LNCaP cells = assay: In vitro LNCaP cell proliferation inhibition test (CellTiter-Glo); type: cell-based; conditions: for Maximum Inhibition (%) / IC50: 6 days; for IC50: Homo sapiens, read-out: Anti-proliferative activity IC50
# Protocol: The cells were then digested with trypsin and counted using an automated cell counter to determine cell density. The cell suspension was diluted to the desired density in growth medium. Subsequently, 100 μL of the cell suspension was seeded into 96-well plates and incubated at 37° C. with 5% CO2 for 24 hours. 10 μL of drug solution (including 3-fold serial dilutions of compounds or DMSO) was added to each well, and the plates were incubated at 37° C. with 5% CO2 for 6 days. Prior to measurement, the assay plates were equilibrated to room temperature. 40 μL of CellTiter-Glo® reagent was added to each well. The plates were mixed on an orbital shaker for 2 minutes to induce cell lysis. After incubation at room temperature for 60 minutes to stabilize the luminescence signal, the plates were read on an Envision plate reader.
# AR = target: T1, AR (Homo sapiens, UniProt P10275, T878A); assay: In vitro AR degradation activity test in LNCaP cells (ELISA, OD450); type: cell-based; conditions: for DC50: LNCaP cells, 24 hours
# T1 construct: endogenous in cells; host or cells: LNCaP
# T1 sequence (P10275 1-920 T878A): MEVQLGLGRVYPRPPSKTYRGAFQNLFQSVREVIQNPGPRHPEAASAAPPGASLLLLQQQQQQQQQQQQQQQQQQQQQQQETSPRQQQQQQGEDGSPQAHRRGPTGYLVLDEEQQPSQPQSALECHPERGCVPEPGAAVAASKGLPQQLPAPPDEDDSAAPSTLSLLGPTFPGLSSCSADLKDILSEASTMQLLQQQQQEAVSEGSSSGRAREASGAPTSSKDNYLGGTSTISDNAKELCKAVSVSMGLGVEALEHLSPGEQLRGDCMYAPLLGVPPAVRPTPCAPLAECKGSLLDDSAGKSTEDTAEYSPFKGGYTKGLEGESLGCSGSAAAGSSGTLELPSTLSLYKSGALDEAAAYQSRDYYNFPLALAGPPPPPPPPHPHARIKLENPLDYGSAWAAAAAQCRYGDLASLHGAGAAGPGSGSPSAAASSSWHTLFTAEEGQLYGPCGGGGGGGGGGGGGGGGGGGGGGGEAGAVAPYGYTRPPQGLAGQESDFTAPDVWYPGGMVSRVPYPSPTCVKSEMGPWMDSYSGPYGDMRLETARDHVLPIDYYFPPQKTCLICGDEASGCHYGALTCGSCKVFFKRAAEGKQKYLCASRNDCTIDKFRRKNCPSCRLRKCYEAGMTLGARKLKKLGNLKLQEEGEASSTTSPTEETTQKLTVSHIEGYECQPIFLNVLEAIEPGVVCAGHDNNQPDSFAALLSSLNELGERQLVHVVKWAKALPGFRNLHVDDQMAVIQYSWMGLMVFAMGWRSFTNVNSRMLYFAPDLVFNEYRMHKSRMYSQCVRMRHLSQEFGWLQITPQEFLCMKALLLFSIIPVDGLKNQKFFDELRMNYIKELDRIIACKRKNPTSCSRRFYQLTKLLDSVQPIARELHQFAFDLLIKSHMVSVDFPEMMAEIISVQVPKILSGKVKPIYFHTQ
# Protocol: The cells were then digested with trypsin and counted using an automated cell counter. The cell suspension was diluted to the desired density in growth medium. The cell suspension was then seeded into 96-well plates at 100 μL per well, and the plates were incubated at 37° C. with 5% CO2 for 24 hours. The compounds were then diluted 200-fold to the final concentration with DMSO or 3-fold to the final concentration with culture medium. 50 μL of compound solution was transferred to the 96-well plate and incubated at 37° C. for 24 hours. After 24 hours of incubation, the cell plate was washed 3 times with DPBS, 100 μL of 1× lysis buffer was added to each well, and placed on ice for 30 minutes. The supernatant was collected. The protein in the cell lysate samples was quantified and then diluted to the required concentration. 100 μL of cell lysate sample was added to the appropriate wells, sealed with tape and pressed firmly on top of the wells, and the plate was incubated at 37° C. for 2 hours. The plate contents were then discarded, and washed 4 times with 1× wash buffer, 200 μL per well each time. 100 μL of reconstituted detection antibody was then added, the plate was sealed with tape and incubated at 37° C. for 1 hour. The aspiration/wash step was then repeated, 100 μL of reconstituted HRP-Linked secondary antibody was added to each well, the plate was sealed with tape and incubated at 37° C. for 30 minutes. The aspiration/wash step was then repeated, 100 μL of substrate solution was added to each well and incubated at 37° C. for 10 minutes, and finally 100 μL of stop solution was added to each well. The plate was gently tapped to ensure thorough mixing, and the OD450 nm was recorded.
# Degradation rate (%)=(OD450_max−OD450_sample)/(OD450_max−OD450_min)×100,plotted using GraphPad Prism 5 software, and IC50 is calculated using SPSS software.
Structure (SMILES),Maximum Inhibition (%) (LNCaP cells),IC50 (LNCaP cells),DC50 (AR),other results
"C[C@]12CC[C@H](O)CC1=CC[C@@H]1[C@@H]2CC[C@]2(C)C(c3cccnc3)=CC[C@@H]12 [Abiraterone, abiraterone, reference compound]",84.06%,2800 nM,,"Kel [1]: 0.298 h⁻¹; MRTPO [1]: 4.60 h; AUC(0-inf) ([1]; rat, plasma): 198 ng·h/mL; AUC(0-t) ([1]; rat, plasma): 163 ng·h/mL; half-life ([1]; rat, plasma): 2.37 h; Cmax ([1]; rat, plasma, read-out: Cmax): 48.4 ng/mL; tmax ([1]; rat, plasma, read-out: tmax): 1.83 h"
"C[C@]12CC[C@H](NC(=O)c3ccncc3)CC1=CCC1C2CC[C@]2(C)C(c3cccnc3)=CCC12 (stereo partly drawn) [Compound 2, N-((3S,10R,13S)-10,13-dimethyl-17-(pyridin-3-yl)-2,3,4,7,8,9,10,11,12,13,14,15-dodecahydro-1H-cyclopenta[a]phenanthren-3-yl)isonicotinamide]",93.50%,851 nM,,
"C[C@]12CC[C@H](NC(=O)c3cccnc3)CC1=CCC1C2CC[C@]2(C)C(c3cccnc3)=CCC12 (stereo partly drawn) [Compound 3, N-((3S,10R,13S)-10,13-dimethyl-17-(pyridin-3-yl)-2,3,4,7,8,9,10,11,12,13,14,15-dodecahydro-1H-cyclopenta[a]phenanthren-3-yl)nicotinamide]",,,2870 nM,
"C[C@]12CC[C@H](NC(=O)c3ccncc3)CC1=CCC1C2CC[C@]2(C)C(n3cnc4ccccc43)=CCC12 (stereo partly drawn) [Compound 8, N-((3S,10R,13S)-17-(1H-benzo[d]imidazol-1-yl)-10,13-dimethyl-2,3,4,7,8,9,10,11,12,13,14,15-dodecahydro-1H-cyclopenta[a]phenanthren-3-yl)isonicotinamide]",104.5%,763 nM,3760 nM,
C[C@]12CC[C@H](NC(=O)c3ccnnc3)CC1=CCC1C2CC[C@]2(C)C(n3cnc4ccccc43)=CCC12 (stereo partly drawn) [Compound 9],95.87%,765 nM,,
C[C@]12CC[C@H](NC(=O)c3ccnnc3)CC1=CCC1C2CC[C@]2(C)C(c3cncnc3)=CCC12 (stereo partly drawn) [Compound 10],99.74%,820 nM,4250 nM,
"Cc1cn(C2=CCC3C4CC=C5C[C@@H](NC(=O)c6cccnc6)CC[C@]5(C)C4CC[C@]23C)cn1 (stereo partly drawn) [Compound 12, N-((3S,10R,13S)-10,13-dimethyl-17-(4-methyl-1H-imidazol-1-yl)-2,3,4,7,8,9,10,11,12,13,14,15-dodecahydro-1H-cyclopenta[a]phenanthren-3-yl)nicotinamide]",102.9%,933 nM,3580 nM,
"Cc1cn(C2=CCC3C4CC=C5C[C@@H](NC(=O)c6ccncc6F)CC[C@]5(C)C4CC[C@]23C)cn1 (stereo partly drawn) [Compound 15, N-((3S,10R,13S)-10,13-dimethyl-17-(4-methyl-1H-imidazol-1-yl)-2,3,4,7,8,9,10,11,12,13,14,15-dodecahydro-1H-cyclopenta[a]phenanthren-3-yl)-3-fluoroisonicotinamide]",102.6%,752 nM,,
"CCc1cn(C2=CCC3C4CC=C5C[C@@H](NC(=O)c6ccncc6)CC[C@]5(C)C4CC[C@]23C)cn1 (stereo partly drawn) [Compound 18, N-((3S,10R,13S)-17-(4-ethyl-1H-imidazol-1-yl)-10,13-dimethyl-2,3,4,7,8,9,10,11,12,13,14,15-dodecahydro-1H-cyclopenta[a]phenanthren-3-yl)isonicotinamide]",98.53%,356 nM,3210 nM,"Anti-proliferative activity, fold improvement compared to abiraterone (LNCaP cells; ratio to abiraterone IC50): 7.9 fold"
CCc1cn(C2=CCC3C4CC=C5C[C@@H](NC(=O)c6ccnnc6)CC[C@]5(C)C4CC[C@]23C)cn1 (stereo partly drawn) [Compound 19],97.68%,427 nM,,
"CC(C)c1cn(C2=CCC3C4CC=C5C[C@@H](NC(=O)c6ccncc6)CC[C@]5(C)C4CC[C@]23C)cn1 (stereo partly drawn) [Compound 20, N-((3S,10R,13S)-17-(4-isopropyl-1H-imidazol-1-yl)-10,13-dimethyl-2,3,4,7,8,9,10,11,12,13,14,15-dodecahydro-1H-cyclopenta[a]phenanthren-3-yl)isonicotinamide]",94.04%,734 nM,,
C[C@]12CC[C@H](NC(=O)c3ccnnc3)CC1=CCC1C2CC[C@]2(C)C(n3cnc(C(F)(F)F)c3)=CCC12 (stereo partly drawn) [Compound 22],104.1%,819 nM,,
COc1cn(C2=CCC3C4CC=C5C[C@@H](NC(=O)c6ccnnc6)CC[C@]5(C)C4CC[C@]23C)cn1 (stereo partly drawn) [Compound 24],98.02%,475 nM,3880 nM,Anti-tumor activity and efficacy compared to enzalutamide (LNCaP cells; in words): comparable anti-tumor activity but significantly superior anti-tumor efficacy compared to enzalutamide
C[C@]12CC[C@H](NC(=O)c3ccnnc3)CC1=CCC1C2CC[C@]2(C)C(n3cnc(C#N)c3)=CCC12 (stereo partly drawn) [Compound 25],89.52%,471 nM,,
"Cc1cn(C2=CCC3C4CC=C5C[C@@H](NC(=O)c6ccc(C#N)cc6)CC[C@]5(C)C4CC[C@]23C)cn1 (stereo partly drawn) [Compound 36, N-((3S,10R,13S)-17-(4-methyl-1H-imidazol-1-yl)-10,13-dimethyl-2,3,4,7,8,9,10,11,12,13,14,15-dodecahydro-1H-cyclopenta[a]phenanthren-3-yl)-4-cyanobenzamide]",99.38%,643 nM,1370 nM,"AR degradation activity, improvement compared to Galeterone (AR; ratio to Galeterone DC50): 7.6 times"
